Marks after values point to notes of the source that are not given here.
Key:
Assay in all cases: imazapyr whole plant greenhouse test (Example 2)
Type in all cases: in vivo
[1] = test system: sunflower genotypes A122T/A205V (mean of H3, H4); settings: for Phytotoxicity Index (0-9) 14 days after treatment / biomass accumulation 14 days after treatment, % of untreated / plant height 14 days after treatment, % of untreated: A122T/A205V Mean; for height reduction: heterozygotes A122T/A205V, of the untreated controls; for reduction in biomass weight: heterozygous A122T/A205V
Method: (§1) Seeds were sown in Petri dishes and, after germination, plantlets were transplanted to pots of 10 cm of diameter in a potting media consisting of equal parts of vermiculite, soil and sand. Plants were grown in a greenhouse under natural light conditions supplemented with 400 W sodium halide lamps to provide a 16 hr daylength. Day/night temperatures were 25 and 20 ° C., respectively. At the V2-V4 stage (Schneiter & Miller (1981) Crop Sci. 21:901-903) 10 plants of each genotype were randomly assigned to each treatment consisting of eight imazapyr doses (0, 40, 80, 160, 240, 320, 400 and 480 g ai/ha, corresponding to untreated, 0.5×, 1×, 2×, 3×, 4×, 5× and 6×, respectively), and a zero-time biomass determination. Experiment was arranged as a randomized block design with a full factorial (sunflower line×treatment) arrangement of treatments and 10 replications.
(§2) On the day of herbicide application ten plants of each genotype were cut at the cotyledonal node and dried at 60° C. for 48 hrs for zero-time dried weight determination.
(§3) The remaining plants were maintained for 14 days after imazapyr treatment (DAT) and their height, Phytotoxicity Index (PI) and above ground dry biomass were determined Height was determined as the distance between the cotyledonal node and the apex of each plant. Above ground biomass data from each line were converted to biomass accumulation after application by subtracting the appropriate average zero- time biomass from each sample. Dry biomass data were converted to percentages of the untreated control plants within each line to allow direct comparisons between groups.

[2] = test system: sunflower hybrid H3 (L3 × L2), A205V + A122T
Method: as §1, §2, §3

[3] = test system: sunflower line L1, A205V
Method: as §1, §2, §3

[4] = test system: sunflower hybrid H4 (L1 × L4), A205V + A122T
Method: as §1, §2, §3

[5] = test system: sunflower hybrid H2 (L3 × L4), A122T
Method: as §1, §2, §3

Structure (SMILES): CC(C)C1(C)N=C(c2ncccc2C(=O)O)NC1=O (stereo not shown) [imazapyr]
- Phytotoxicity Index (0-9) 14 days after treatment ([1]; dose 0.5 (0.5x, 40 g ai/ha)): 0.5
- biomass accumulation 14 days after treatment, % of untreated ([1]; dose 0.5 (0.5x, 40 g ai/ha)): 99.6%
- plant height 14 days after treatment, % of untreated ([1]; dose 0.5 (0.5x, 40 g ai/ha)): 99.4%
- Phytotoxicity Index (0-9) 14 days after treatment ([1]; dose 1 (1x, 80 g ai/ha)): 0.5
- biomass accumulation 14 days after treatment, % of untreated ([1]; dose 1 (1x, 80 g ai/ha)): 98.9%
- plant height 14 days after treatment, % of untreated ([1]; dose 1 (1x, 80 g ai/ha)): 98.3%
- Phytotoxicity Index (0-9) 14 days after treatment ([1]; dose 2 (2x, 160 g ai/ha)): 0.5
- biomass accumulation 14 days after treatment, % of untreated ([1]; dose 2 (2x, 160 g ai/ha)): 93.2** %
- plant height 14 days after treatment, % of untreated ([1]; dose 2 (2x, 160 g ai/ha)): 98.3%
- Phytotoxicity Index (0-9) 14 days after treatment ([1]; dose 3 (3x, 240 g ai/ha)): 0.5
- biomass accumulation 14 days after treatment, % of untreated ([1]; dose 3 (3x, 240 g ai/ha)): 89.5** %
- plant height 14 days after treatment, % of untreated ([1]; dose 3 (3x, 240 g ai/ha)): 96.9%
- Phytotoxicity Index (0-9) 14 days after treatment ([1]; dose 4 (4x, 320 g ai/ha)): 0.5
- biomass accumulation 14 days after treatment, % of untreated ([1]; dose 4 (4x, 320 g ai/ha)): 86.4** %
- plant height 14 days after treatment, % of untreated ([1]; dose 4 (4x, 320 g ai/ha)): 93.5** %
- Phytotoxicity Index (0-9) 14 days after treatment ([1]; dose 5 (5x, 400 g ai/ha)): 0.6
- biomass accumulation 14 days after treatment, % of untreated ([1]; dose 5 (5x, 400 g ai/ha)): 75.4** %
- plant height 14 days after treatment, % of untreated ([1]; dose 5 (5x, 400 g ai/ha)): 76.3** %
- Phytotoxicity Index (0-9) 14 days after treatment ([1]; dose 6 (6x, 480 g ai/ha)): 1
- biomass accumulation 14 days after treatment, % of untreated ([1]; dose 6 (6x, 480 g ai/ha)): 67.5** %
- plant height 14 days after treatment, % of untreated ([1]; dose 6 (6x, 480 g ai/ha)): 61.8** %
- height reduction ([1]; 0.5x): 0.6%
- height reduction ([1]; 6x): 38.2%
- reduction in biomass weight ([1]; 0.5x): 0.3%
- reduction in biomass weight ([1]; 6x): 33%
- Phytotoxicity Index (0-9) 14 days after treatment ([2]; dose 0.5 (0.5x, 40 g ai/ha)): 0.5
- biomass accumulation 14 days after treatment, % of untreated ([2]; dose 0.5 (0.5x, 40 g ai/ha)): 99.804%
- plant height 14 days after treatment, % of untreated ([2]; dose 0.5 (0.5x, 40 g ai/ha)): 98.7%
- Phytotoxicity Index (0-9) 14 days after treatment ([2]; dose 1 (1x, 80 g ai/ha)): 0.5
- biomass accumulation 14 days after treatment, % of untreated ([2]; dose 1 (1x, 80 g ai/ha)): 100.0%
- plant height 14 days after treatment, % of untreated ([2]; dose 1 (1x, 80 g ai/ha)): 97.0%
- Phytotoxicity Index (0-9) 14 days after treatment ([2]; dose 2 (2x, 160 g ai/ha)): 0.5
- biomass accumulation 14 days after treatment, % of untreated ([2]; dose 2 (2x, 160 g ai/ha)): 94.3%
- plant height 14 days after treatment, % of untreated ([2]; dose 2 (2x, 160 g ai/ha)): 96.7%
- Phytotoxicity Index (0-9) 14 days after treatment ([2]; dose 3 (3x, 240 g ai/ha)): 0.5
- biomass accumulation 14 days after treatment, % of untreated ([2]; dose 3 (3x, 240 g ai/ha)): 90.8%
- plant height 14 days after treatment, % of untreated ([2]; dose 3 (3x, 240 g ai/ha)): 93.8%
- Phytotoxicity Index (0-9) 14 days after treatment ([2]; dose 4 (4x, 320 g ai/ha)): 0.5
- biomass accumulation 14 days after treatment, % of untreated ([2]; dose 4 (4x, 320 g ai/ha)): 87.8%
- plant height 14 days after treatment, % of untreated ([2]; dose 4 (4x, 320 g ai/ha)): 92.0%
- Phytotoxicity Index (0-9) 14 days after treatment ([2]; dose 5 (5x, 400 g ai/ha)): 0.6
- biomass accumulation 14 days after treatment, % of untreated ([2]; dose 5 (5x, 400 g ai/ha)): 72.1%
- plant height 14 days after treatment, % of untreated ([2]; dose 5 (5x, 400 g ai/ha)): 65.4%
- Phytotoxicity Index (0-9) 14 days after treatment ([2]; dose 6 (6x, 480 g ai/ha)): 1.0
- biomass accumulation 14 days after treatment, % of untreated ([2]; dose 6 (6x, 480 g ai/ha)): 63.2%
- plant height 14 days after treatment, % of untreated ([2]; dose 6 (6x, 480 g ai/ha)): 58.0%
- Phytotoxicity Index (0-9) 14 days after treatment ([3]; dose 0.5 (0.5x, 40 g ai/ha)): 0
- biomass accumulation 14 days after treatment, % of untreated ([3]; dose 0.5 (0.5x, 40 g ai/ha)): 91.7%
- plant height 14 days after treatment, % of untreated ([3]; dose 0.5 (0.5x, 40 g ai/ha)): 100.0%
- Phytotoxicity Index (0-9) 14 days after treatment ([3]; dose 1 (1x, 80 g ai/ha)): 0
- biomass accumulation 14 days after treatment, % of untreated ([3]; dose 1 (1x, 80 g ai/ha)): 81.7%
- plant height 14 days after treatment, % of untreated ([3]; dose 1 (1x, 80 g ai/ha)): 100.0%
- Phytotoxicity Index (0-9) 14 days after treatment ([3]; dose 2 (2x, 160 g ai/ha)): 1.6
- biomass accumulation 14 days after treatment, % of untreated ([3]; dose 2 (2x, 160 g ai/ha)): 54.7%
- plant height 14 days after treatment, % of untreated ([3]; dose 2 (2x, 160 g ai/ha)): 78.9%
- Phytotoxicity Index (0-9) 14 days after treatment ([3]; dose 3 (3x, 240 g ai/ha)): 5.1
- biomass accumulation 14 days after treatment, % of untreated ([3]; dose 3 (3x, 240 g ai/ha)): 35.7%
- plant height 14 days after treatment, % of untreated ([3]; dose 3 (3x, 240 g ai/ha)): 50.0%
- Phytotoxicity Index (0-9) 14 days after treatment ([3]; dose 4 (4x, 320 g ai/ha)): 8.4
- biomass accumulation 14 days after treatment, % of untreated ([3]; dose 4 (4x, 320 g ai/ha)): 25.3%
- plant height 14 days after treatment, % of untreated ([3]; dose 4 (4x, 320 g ai/ha)): 38.1%
- Phytotoxicity Index (0-9) 14 days after treatment ([3]; dose 5 (5x, 400 g ai/ha)): 8.9
- biomass accumulation 14 days after treatment, % of untreated ([3]; dose 5 (5x, 400 g ai/ha)): 19.8%
- plant height 14 days after treatment, % of untreated ([3]; dose 5 (5x, 400 g ai/ha)): 31.8%
- Phytotoxicity Index (0-9) 14 days after treatment ([3]; dose 6 (6x, 480 g ai/ha)): 8.9
- biomass accumulation 14 days after treatment, % of untreated ([3]; dose 6 (6x, 480 g ai/ha)): 19.5%
- plant height 14 days after treatment, % of untreated ([3]; dose 6 (6x, 480 g ai/ha)): 34.7%
- Phytotoxicity Index (0-9) 14 days after treatment ([4]; dose 0.5 (0.5x, 40 g ai/ha)): 0.0
- biomass accumulation 14 days after treatment, % of untreated ([4]; dose 0.5 (0.5x, 40 g ai/ha)): 99.479%
- plant height 14 days after treatment, % of untreated ([4]; dose 0.5 (0.5x, 40 g ai/ha)): 100.0%
- Phytotoxicity Index (0-9) 14 days after treatment ([4]; dose 1 (1x, 80 g ai/ha)): 0.0
- biomass accumulation 14 days after treatment, % of untreated ([4]; dose 1 (1x, 80 g ai/ha)): 97.8%
- plant height 14 days after treatment, % of untreated ([4]; dose 1 (1x, 80 g ai/ha)): 99.6%
- Phytotoxicity Index (0-9) 14 days after treatment ([4]; dose 2 (2x, 160 g ai/ha)): 0.0
- biomass accumulation 14 days after treatment, % of untreated ([4]; dose 2 (2x, 160 g ai/ha)): 92.2%
- plant height 14 days after treatment, % of untreated ([4]; dose 2 (2x, 160 g ai/ha)): 100.0%
- Phytotoxicity Index (0-9) 14 days after treatment ([4]; dose 3 (3x, 240 g ai/ha)): 0.0
- biomass accumulation 14 days after treatment, % of untreated ([4]; dose 3 (3x, 240 g ai/ha)): 88.2%
- plant height 14 days after treatment, % of untreated ([4]; dose 3 (3x, 240 g ai/ha)): 100.0%
- Phytotoxicity Index (0-9) 14 days after treatment ([4]; dose 4 (4x, 320 g ai/ha)): 0.0
- biomass accumulation 14 days after treatment, % of untreated ([4]; dose 4 (4x, 320 g ai/ha)): 85.0%
- plant height 14 days after treatment, % of untreated ([4]; dose 4 (4x, 320 g ai/ha)): 95.0%
- Phytotoxicity Index (0-9) 14 days after treatment ([4]; dose 5 (5x, 400 g ai/ha)): 0.2
- biomass accumulation 14 days after treatment, % of untreated ([4]; dose 5 (5x, 400 g ai/ha)): 78.7%
- plant height 14 days after treatment, % of untreated ([4]; dose 5 (5x, 400 g ai/ha)): 87.2%
- Phytotoxicity Index (0-9) 14 days after treatment ([4]; dose 6 (6x, 480 g ai/ha)): 0.0
- biomass accumulation 14 days after treatment, % of untreated ([4]; dose 6 (6x, 480 g ai/ha)): 71.8%
- plant height 14 days after treatment, % of untreated ([4]; dose 6 (6x, 480 g ai/ha)): 65.5%
- Phytotoxicity Index (0-9) 14 days after treatment ([5]; dose 0.5 (0.5x, 40 g ai/ha)): 0.5
- biomass accumulation 14 days after treatment, % of untreated ([5]; dose 0.5 (0.5x, 40 g ai/ha)): 100%
- plant height 14 days after treatment, % of untreated ([5]; dose 0.5 (0.5x, 40 g ai/ha)): 99.2%
- Phytotoxicity Index (0-9) 14 days after treatment ([5]; dose 1 (1x, 80 g ai/ha)): 0.5
- biomass accumulation 14 days after treatment, % of untreated ([5]; dose 1 (1x, 80 g ai/ha)): 97.2%
- plant height 14 days after treatment, % of untreated ([5]; dose 1 (1x, 80 g ai/ha)): 98.6%
- Phytotoxicity Index (0-9) 14 days after treatment ([5]; dose 2 (2x, 160 g ai/ha)): 0.5
- biomass accumulation 14 days after treatment, % of untreated ([5]; dose 2 (2x, 160 g ai/ha)): 97.9%
- plant height 14 days after treatment, % of untreated ([5]; dose 2 (2x, 160 g ai/ha)): 100.3%
- Phytotoxicity Index (0-9) 14 days after treatment ([5]; dose 3 (3x, 240 g ai/ha)): 0.5
- biomass accumulation 14 days after treatment, % of untreated ([5]; dose 3 (3x, 240 g ai/ha)): 98.2%
- plant height 14 days after treatment, % of untreated ([5]; dose 3 (3x, 240 g ai/ha)): 99.6%
- Phytotoxicity Index (0-9) 14 days after treatment ([5]; dose 4 (4x, 320 g ai/ha)): 0.5
- biomass accumulation 14 days after treatment, % of untreated ([5]; dose 4 (4x, 320 g ai/ha)): 97.8%
- plant height 14 days after treatment, % of untreated ([5]; dose 4 (4x, 320 g ai/ha)): 101.0%
- Phytotoxicity Index (0-9) 14 days after treatment ([5]; dose 5 (5x, 400 g ai/ha)): 0.5
- biomass accumulation 14 days after treatment, % of untreated ([5]; dose 5 (5x, 400 g ai/ha)): 85.1%
- plant height 14 days after treatment, % of untreated ([5]; dose 5 (5x, 400 g ai/ha)): 87.0%
- Phytotoxicity Index (0-9) 14 days after treatment ([5]; dose 6 (6x, 480 g ai/ha)): 0.5
- biomass accumulation 14 days after treatment, % of untreated ([5]; dose 6 (6x, 480 g ai/ha)): 79.5%
- plant height 14 days after treatment, % of untreated ([5]; dose 6 (6x, 480 g ai/ha)): 79.6%
